Measurements: patent US6372749B1, “Pyrazolo[1,5-a]pyrimidine derivatives” (Otsuka Pharmaceutical Factory, Inc., priority 1998, dated 2002)

What was measured:
S.D. rats = test: Recovery of pain threshold after substance P injection (Randall-Sellitto method); type: in vivo; conditions: male S.D. rats, oral 5% gum arabic suspension 10 ml/kg, substance P 25 ng/0.1 ml s.c. in left hind paw
Procedure: Using 6-week-old male S.D. rats (7 rats in each group), the pain threshold of each rat's left hind paw plantar was measured using an Analgesy-Meter (product of Unicom) in accordance with the Randall-Sellitto method [Randall, L. O. and Sellitto, J. J., Arch. Int. Pharmacodyn., 111, 409 (1957)]. The value thus obtained was termed “pre-value”.
One hour after the measurement of the pre-value, a 5% gum arabic suspension containing the compound of the invention was orally administered to the rats of the test group in an amount of 10 ml/kg, whereas a 5% gum arabic suspension (not containing the compound of the invention) was orally administered to the rats of the control group in an amount of 10 ml/kg.
One hour later, a physiological saline solution containing substance P (25 ng/0.1 ml) was subcutaneously injected into the left hind paw plantar of each rat.
The pain threshold of each rat's left hind paw was measured in the same manner as above at predetermined time intervals from the substance P injection. The measured value was termed “post-value”.
The recovery (%) of the pain threshold was calculated from the post-values and the pre-values of the test group and the control group, by means of the following formula: [formula]

[1] = time of measurement 60 minutes later

SMILES | Recovery (%) of the pain threshold (the highest recovery %) (S.D. rats; [1]) [%] | Recovery (%) of the pain threshold (the highest recovery %) (S.D. rats; time of measurement 30 minutes later) [%] | melting point
CCCCc1cc(/C=C/c2cc(OC)c(OC)c(OC)c2)n2nccc2n1 [Example 1, (E)-5-n-butyl-7-[2-(3,4,5-trimethoxyphenyl)ethenyl]pyrazolo[1,5-a]pyrimidine] | 47.8 |  | 
CCCCc1cc(/C=C/c2ccc(Cl)cc2)n2nccc2n1 [Example 8, (E)-5-n-butyl-7-[2-(4-chlorophenyl)ethenyl]pyrazolo[1,5-a]pyrimidine] |  | 36.2 | 
CCCCc1cc(/C(=C/c2cc(OC)c(OC)c(OC)c2)SC)n2nccc2n1 [Example 12, (Z)-5-n-butyl-7-[1-methylthio-2-(3,4,5-trimethoxyphenyl)ethenyl]pyrazolo[1,5-a]pyrimidine] | 41.5 |  | 
CCCCc1cc(/C(=C\c2cc(OC)c(OC)c(OC)c2)C(=O)O)n2nccc2n1 [Example 40, (E) 2-(5-n-butylpyrazolo[1,5-a]pyrimidin-7-yl)-3-(3,4,5-trimethoxyphenyl)acrylic Acid] | 47.2 |  | 
CCCCc1cc(/C(=C\c2cc(OC)c(O)c(OC)c2)C(=O)O)n2nccc2n1 [Example 109, (E) 2-(5-n-butylpyrazolo[1,5-a]pyrimidin-7-yl)-3-(4-hydroxy-3,5-dimethoxyphenyl)acrylic acid] | 52.1 |  | > 152 °C (dec.)
